Tests used:
FFD mice = assay: Hepatic steatosis (% vacuolation area, H&E morphometry) in fast food diet (FFD) mouse model of NASH; assay type: in vivo, male C57BL/6 mice; settings: Formula (I) 0.15% admixture in diet, Formula (III) 10 mg/kg PO QD, months 7-10
Method: The following study was conducted to evaluate the efficacy of the combination of an ASK1 inhibitor and an FXR agonist in a mouse model of non-alcoholic steatohepatitis (NASH), relative to the efficacy of the individual agents alone in the model. NASH was induced in male C57BL/6 mice by chronic administration of a “fast food” diet (FFD) high in saturated fats, cholesterol and sugars for a total of 10 months, whereas lean control animals were maintained on a normal chow diet. A NASH phenotype was established in FFD mice compared to control mice by 7 months, and was characterized by obesity, hypercholesterolemia, and AST/ALT elevation; and by histological features of NASH such as hepatocellular macrovesicular steatosis and ballooning degeneration. […] Endpoint analyses included morphometric quantification of liver steatosis (% of steatotic area), liver cholesterol content, serum ALT/AST levels, serum bile acid levels, and nanostring evaluation of gene expression. […] Extent of steatosis was determined on H&E stained tissue sections using the Definiens Developer software package. […] The number and size of these areas were enumerated and the total steatotic area was expressed as a percentage of total liver tissue cross-sectional area. […]

TIMP-1 = assay: Hepatic expression of TIMP-1 by qRT-PCR, CDHFD/NaNO2 rat model of NASH; assay type: in vivo, male Wistar rats; settings: vs vehicle; rats; Formula (I) 0.2% in diet, Formula (III) 30 mg/kg/day, week 4 to 14
Method: The following study was conducted to evaluate the efficacy of the combination of an ASK1 inhibitor and an FXR agonist in a rodent model of non-alcoholic steatohepatitis (NASH), relative to the efficacy of the individual agents alone in the model. NASH was induced in male Wistar rats by administration of a choline-deficient high fat diet (CDHFD) combined with the chronic administration of sodium nitrite (CDHFD/NaNO2). The model capitalizes on the “two hit theory” of NASH by inducing both metabolic dysfunction (CDHFD) and oxidative stress (NaNO2) in the liver to result in hepatic fibrosis that is similar in character and severity to that seen in patients with advanced NASH. […] The following endpoints were assessed at the completion of the 14 week study: i) liver fibrosis measured by liver hydroxyproline (OHP) content and by quantitative morphometric analysis of collagen content by Picosirius red (PSR) staining; ii) myofibroblast activation in liver sections as measured by quantitative IHC of the myofibroblast marker desmin; and, iii) Col1a1 and Timp1 in liver tissue measured by RT-PCR. […] All endpoints were assessed at the completion of the 14 week study protocol. […] Quantitative PCR was performed and analyzed using Absolute QPCR Rox Mix (Life Technologies, Cat No # AB-1132) and a 384-format ABI 7900HT Sequence Detection System (Applied Biosystems). […]

| SMILES | reduction in steatosis (H&E stained liver sections) (FFD mice) | reduction of hepatic TIMP-1 expression induced by CDHFD/NaNO2 (TIMP-1) |
| --- | --- | --- |
| O=C(O)c1ccnc(N2CC(O)(c3ccc(OCc4c(-c5c(Cl)cccc5Cl)noc4C4CC4)cc3Cl)C2)c1 [Formula (III)] | 27% | did not significantly reduce |
| O=C(Nc1cccc(-c2nncn2C2CC2)c1)c1cc(-n2cnc(C3CC3)c2)ccn1 [Formula (I)] | 39% | 28% |

— patent US20180133203A1, “METHODS OF TREATING LIVER DISEASE” (Gilead Sciences, Inc., priority 2016, published 2018)
